In patent US9381200B2, “Nitrogen containing compounds” (WOCKHARDT LIMITED, priority 2011, dated 2016):
In brackets after ≈: the same amount, converted by molar mass. Like-named read-outs stand apart in the source and are kept apart here.

Columns and labels:
Type in all cases: cell-based
A. baumannii S-334 = assay: Antibacterial activity of sulbactam / Cefepime combinations with a compound of the invention (MIC); settings: Acinetobacter baumannii
Description: (§1) The biological activity of representative compounds according to the invention against various bacterial strains was investigated. In a typical study, overnight grown bacterial cultures were diluted appropriately and inoculated on the agar media containing doubling dilutions of the test compounds. Observation for growth or no growth was performed after 16-20 hours of incubation at 35±2° C. in ambient air. The overall procedure was performed as per Clinical and Laboratory Standards Institute (CLSI) recommendations (Clinical and Laboratory Standards Institute (CLSI), Performance Standards for Antimicrobial Susceptibility Testing, 20th Informational Supplement, M 100-S20, Volume 30, No. 1, 2010).

A. baumannii G-165 = assay: as above; settings: Acinetobacter baumannii
Description: as §1

A. baumannii J-143 = assay: as above; settings: Acinetobacter baumannii
Description: as §1

A. baumannii 1460648 = assay: as above
Description: as §1

[1] = tested on: K. pneumoniae ATCC 700603; assay: Antibacterial activity of Ceftazidime in presence of compounds of the invention (MIC); settings: Klebsiella pneumoniae, ATCC700603; Table 6; K. pneumoniae ATCC 700603 (ESBL type: Class A); Ceftazidime alone or with compound at fixed 4 mcg/ml as named in the composition
Description: as §1
(§2) The antibacterial activity of representative compounds according to the invention was also investigated in combination with at least one antibacterial agent using the above study protocol and the results are given Table 6.

P. vulgaris S-137B = assay: as above; settings: Proteus vulgaris, S137B; Table 6; P. vulgaris S-137B (ESBL type: Class C); Ceftazidime alone or with compound at fixed 4 mcg/ml as named in the composition
Description: as §1, §2

P. aeruginosa ATCC 27853 = assay: Antibacterial activity (MIC) against MDR Gram negative strains; settings: Pseudomonas aeruginosa, ATCC27853; Table 5; P. aeruginosa ATCC 27853; read-out: MIC
Description: as §1
(§3) The activities are expressed as MICs (mcg/ml).

E. Coli W 13352 = assay: as above; settings: Escherichia coli; Table 4; E. Coli W 13352, Class A ESBL, MDR; read-out: MIC
Description: as §1, §3

E. Coli W 13351 = assay: as above; settings: Escherichia coli; Table 4; E. Coli W 13351, Class A ESBL, MDR; read-out: MIC
Description: as §1, §3

E. Coli B 89 = assay: as above; settings: Escherichia coli; Table 4; E. Coli B 89, Class C ESBL, MDR; read-out: MIC
Description: as §1, §3

K penumoniae H 523 = assay: as above; settings: Table 4; K penumoniae H 523, KPC ESBL, MDR; read-out: MIC
Description: as §1, §3

K penumoniae H 521 = assay: as above; settings: Table 4; K penumoniae H 521, KPC ESBL, MDR; read-out: MIC
Description: as §1, §3

K. penumoniae S 48 = assay: as above; settings: Table 5; K. penumoniae S 48, Class B ESBL, MDR; read-out: MIC
Description: as §1, §3

E. Coli W 13353 = assay: as above; settings: Escherichia coli; Table 4; E. Coli W 13353, Class A ESBL, MDR; read-out: MIC
Description: as §1, §3

E. Coli H 484 = assay: as above; settings: Escherichia coli; Table 4; E. Coli H 484, Class C ESBL, MDR; read-out: MIC
Description: as §1, §3

E. Coli M 3 = assay: as above; settings: Escherichia coli; Table 5; E. Coli M 3, Class B ESBL, MDR; read-out: MIC
Description: as §1, §3

P. aeruginosa Ps 32 = assay: as above; settings: Pseudomonas aeruginosa, PS32; Table 5; P. aeruginosa Ps 32; read-out: MIC
Description: as §1, §3

K penumoniae H 525 = assay: as above; settings: Table 4; K penumoniae H 525, KPC ESBL, MDR; read-out: MIC
Description: as §1, §3

P. aeruginosa Ps 21 = assay: as above; settings: Pseudomonas aeruginosa, PS21; Table 5; P. aeruginosa Ps 21; read-out: MIC
Description: as §1, §3

E. Coli M 44 = assay: as above; settings: Escherichia coli; Table 5; E. Coli M 44, Class B ESBL, MDR; read-out: MIC
Description: as §1, §3

E. coli M 50 = assay: Antibacterial activity (MIC), agar dilution per CLSI; settings: Escherichia coli, read-out: MIC
Summary of the method: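 Overnight bacterial cultures, suitably diluted, were inoculated onto agar media containing doubling dilutions of test compound. Plates were incubated 16-20 hours at 35±2° C. in ambient air and scored for growth or no growth following CLSI recommendations. MIC is reported in mcg/ml.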

E. coli NCTC 13351 = assay: as above; settings: Escherichia coli, NCTC13351, Table 3, E. coli NCTC 13351 expressing ESBL, 16-20 hours, 35±2° C., read-out: MIC
Summary of the method: (§4)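 Agar dilution MIC per CLSI: overnight cultures diluted and inoculated onto agar containing doubling dilutions of compound. Growth/no growth read after 16-20 h at 35±2° C in ambient air. Strains express ESBL.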

E. coli 7 MP = assay: as above; settings: Escherichia coli, Table 3, E. coli 7 MP expressing ESBL, read-out: MIC
Summary of the method: as §4

[2] = M50, Table 4, E. Coli M 50, Class C ESBL, MDR
[3] = S334, footnotes of Tables 7 and 8, A. baumannii S-334, substance used alone, read-out: Standalone MIC
[4] = G165, footnotes of Tables 7 and 8, A. baumannii G-165, substance used alone, read-out: Standalone MIC
[5] = J143, footnotes of Tables 7 and 8, A. baumannii J-143, substance used alone, read-out: Standalone MIC
[6] = Acinetobacter baumannii, footnotes of Tables 7 and 8, A. baumannii 1460648, substance used alone, read-out: Standalone MIC
[7] = M50, Table 3, E. coli M 50 expressing ESBL, agar dilution

Row | SMILES | MIC (P. aeruginosa ATCC 27853) | MIC (E. Coli W 13352) | MIC (E. Coli W 13351) | MIC (E. Coli B 89) | MIC (K penumoniae H 523) | MIC (K penumoniae H 521) | MIC (K. penumoniae S 48) | MIC (E. Coli W 13353) | MIC (E. Coli H 484) | MIC (E. Coli M 3) | MIC (P. aeruginosa Ps 32) | MIC (K penumoniae H 525) | MIC (P. aeruginosa Ps 21) | MIC (E. Coli M 44) | MIC (E. coli M 50; [2]) | MIC (E. coli NCTC 13351) | MIC (E. coli 7 MP) | MIC (A. baumannii S-334; [3]) | MIC (A. baumannii G-165; [4]) | MIC (E. coli M 50; [7]) | other results
1 | CC1(C)[C@H](C(=O)O)N2C(=O)C[C@H]2S1(=O)=O [Sulbactam, sulbactam] | – | – | – | – | – | – | – | – | – | – | – | – | – | – | – | – | – | – | – | – | MIC (A. baumannii S-334; S334, read-out: MIC of sulbactam): 32 µg/mL; MIC (A. baumannii S-334; S334, read-out: Standalone MIC): 32 µg/mL; MIC (A. baumannii G-165; G165, read-out: MIC of sulbactam): 32 µg/mL; MIC (A. baumannii G-165; G165, read-out: Standalone MIC): 32 µg/mL; MIC (A. baumannii J-143; J143, read-out: MIC of sulbactam): 32 µg/mL; MIC (A. baumannii J-143; J143, read-out: Standalone MIC): 32 µg/mL; MIC (A. baumannii 1460648; Acinetobacter baumannii, 1460648, read-out: MIC of sulbactam): 32 µg/mL; MIC (A. baumannii 1460648; Acinetobacter baumannii, 1460648, read-out: Standalone MIC): 32 µg/mL
2 | CC(C)(O/N=C(\C(=O)N[C@@H]1C(=O)N2C(C(=O)[O-])=C(C[n+]3ccccc3)CS[C@H]12)c1csc(N)n1)C(=O)O [Ceftazidime, reference compound] | 1 µg/mL (≈ 1.83 µM) | > 32 µg/mL | 32 µg/mL (≈ 58.5 µM) | > 32 µg/mL | > 32 µg/mL | > 32 µg/mL | > 32 µg/mL | 32 µg/mL (≈ 58.5 µM) | > 32 µg/mL | > 32 µg/mL | > 32 µg/mL | > 32 µg/mL | > 32 µg/mL | > 32 µg/mL | > 32 µg/mL | – | – | – | – | – | MIC [1]: > 32 µg/mL; MIC (P. vulgaris S-137B): > 32 µg/mL
3 | CO/N=C(\C(=O)N[C@@H]1C(=O)N2C(C(=O)[O-])=C(C[N+]3(C)CCCC3)CS[C@H]12)c1csc(N)n1 [Cefepime] | – | – | – | – | – | – | – | – | – | – | – | – | – | – | – | – | – | – | – | – | MIC (A. baumannii S-334; S334, Table 8, A. baumannii S-334, Cefepime alone or with sulbactam and/or compound at fixed concentrations as named in the composition, read-out: MIC of Cefepime): 32 µg/mL; MIC (A. baumannii G-165; G165, Table 8, A. baumannii G-165, Cefepime alone or with sulbactam and/or compound at fixed concentrations as named in the composition, read-out: MIC of Cefepime): > 32 µg/mL; MIC (A. baumannii J-143; J143, Table 8, A. baumannii J-143, Cefepime alone or with sulbactam and/or compound at fixed concentrations as named in the composition, read-out: MIC of Cefepime): > 32 µg/mL; MIC (A. baumannii 1460648; Acinetobacter baumannii, Table 8, A. baumannii 1460648, Cefepime alone or with sulbactam and/or compound at fixed concentrations as named in the composition, read-out: MIC of Cefepime): > 32 µg/mL

More lines, main results first:

Row | MIC (P. aeruginosa ATCC 27853) | MIC (E. Coli W 13352) | MIC (E. Coli W 13351) | MIC (E. Coli B 89) | MIC (K penumoniae H 523) | MIC (K penumoniae H 521) | MIC (K. penumoniae S 48) | MIC (E. Coli W 13353) | MIC (E. Coli H 484) | MIC (E. Coli M 3) | MIC (P. aeruginosa Ps 32) | MIC (K penumoniae H 525) | MIC (P. aeruginosa Ps 21) | MIC (E. Coli M 44) | MIC (E. coli M 50; [2]) | MIC (E. coli NCTC 13351) | MIC (E. coli 7 MP) | MIC (A. baumannii S-334; [3]) | MIC (A. baumannii G-165; [4]) | MIC (E. coli M 50; [7]) | SMILES | other results
4 | 8 µg/mL (≈ 20.4 µM) | 0.25 µg/mL (≈ 0.639 µM) | 0.25 µg/mL (≈ 0.639 µM) | 0.25 µg/mL (≈ 0.639 µM) | 1 µg/mL (≈ 2.55 µM) | 0.5 µg/mL (≈ 1.28 µM) | 0.5 µg/mL (≈ 1.28 µM) | 0.12 µg/mL (≈ 0.307 µM) | 0.12 µg/mL (≈ 0.307 µM) | 2 µg/mL (≈ 5.11 µM) | 8 µg/mL (≈ 20.4 µM) | 0.5 µg/mL (≈ 1.28 µM) | 8 µg/mL (≈ 20.4 µM) | 0.5 µg/mL (≈ 1.28 µM) | 0.25 µg/mL (≈ 0.639 µM) | 0.25 µg/mL (≈ 0.639 µM) | 1 µg/mL (≈ 2.55 µM) | > 32 µg/mL | > 32 µg/mL | 0.25 µg/mL (≈ 0.639 µM) | O=C(NNC(=O)[C@@H]1CC[C@@H]2CN1C(=O)N2OS(=O)(=O)O)[C@@H]1CCCNC1 [Example 2, trans-sulfuric acid mono-[2-(N′—[(R)-piperidin-3-carbonyl]-hydrazinocarbonyl)-7-oxo-1,6-diaza-bicyclo[3.2.1]oct-6-yl]ester] | MIC (A. baumannii J-143; [5]): > 32 µg/mL; MIC (A. baumannii 1460648; [6]): > 32 µg/mL
5 | 2 µg/mL (≈ 5.3 µM) | 0.5 µg/mL (≈ 1.32 µM) | 0.5 µg/mL (≈ 1.32 µM) | 0.25 µg/mL (≈ 0.662 µM) | 0.5 µg/mL (≈ 1.32 µM) | 0.5 µg/mL (≈ 1.32 µM) | 0.5 µg/mL (≈ 1.32 µM) | 0.25 µg/mL (≈ 0.662 µM) | 0.5 µg/mL (≈ 1.32 µM) | 0.5 µg/mL (≈ 1.32 µM) | 4 µg/mL (≈ 10.6 µM) | 0.5 µg/mL (≈ 1.32 µM) | 4 µg/mL (≈ 10.6 µM) | 0.12 µg/mL (≈ 0.318 µM) | 0.5 µg/mL (≈ 1.32 µM) | 0.25 µg/mL (≈ 0.662 µM) | 1 µg/mL (≈ 2.65 µM) | > 32 µg/mL | > 32 µg/mL | 0.25 µg/mL (≈ 0.662 µM) | O=C(NNC(=O)[C@@H]1CC[C@@H]2CN1C(=O)N2OS(=O)(=O)O)[C@@H]1CCNC1 [Example 3, trans-sulfuric acid mono-[2-(N′—[(R)-pyrrolidin-3-carbonyl]-hydrazinocarbonyl)-7-oxo-1,6-diaza-bicyclo[3.2.1]oct-6-yl]ester] | MIC (A. baumannii J-143; [5]): > 32 µg/mL; MIC (A. baumannii 1460648; [6]): > 32 µg/mL
6 | 32 µg/mL (≈ 81.8 µM) | 2 µg/mL (≈ 5.11 µM) | 1 µg/mL (≈ 2.55 µM) | 1 µg/mL (≈ 2.55 µM) | 0.5 µg/mL (≈ 1.28 µM) | 1 µg/mL (≈ 2.55 µM) | 1 µg/mL (≈ 2.55 µM) | 1 µg/mL (≈ 2.55 µM) | 4 µg/mL (≈ 10.2 µM) | 1 µg/mL (≈ 2.55 µM) | 16 µg/mL (≈ 40.9 µM) | 1 µg/mL (≈ 2.55 µM) | 32 µg/mL (≈ 81.8 µM) | 1 µg/mL (≈ 2.55 µM) | 1 µg/mL (≈ 2.55 µM) | 1 µg/mL (≈ 2.55 µM) | 2 µg/mL (≈ 5.11 µM) | – | – | 1 µg/mL (≈ 2.55 µM) | O=C(NNC(=O)[C@H]1CC[C@@H]2CN1C(=O)N2OS(=O)(=O)O)C1CCNCC1 (relative stereo) [Example 13, trans-sulfuric acid mono-[2-(N′-(piperidin-4-carbonyl)-hydrazinocarbonyl)-7-oxo-1,6-diaza-bicyclo[3.2.1]oct-6-yl]ester] | –
